# Test results reported in patent US12371454B2, “Cyclic peptide compound having Kras inhibitory action” (priority 2019, dated 2025).
# Starred links: 1 amine or outer side, 2 acyl side, 3 side chain; linkers in the order of their positions; H or OH if unused. Positions of bridges follow the written chain, without caps; N, C: chain ends. Non-standard residues stand in square brackets, D forms with d. Residues, ends and D or L forms follow the SMILES beside them. *: point of attachment. hPhe(3-Cl-4-CF3) = N[C@@H](CCc1ccc(C(F)(F)F)c(Cl)c1)C(=O)O; X23 = CN([C@@H](Cc1ccccc1OC(F)(F)F)C(=O)[*:2])[*:1]; NMePhe(2-CF3) = CN[C@@H](Cc1ccccc1C(F)(F)F)C(=O)O; NMePhe(3-Cl) = CN[C@@H](Cc1cccc(Cl)c1)C(=O)O; NMePhe(4-Me) = CN[C@@H](Cc1ccc(C)cc1)C(=O)O; NMePhe(4-F) = CN[C@@H](Cc1ccc(F)cc1)C(=O)O; NMePhe(2-Me) = CN[C@@H](Cc1ccccc1C)C(=O)O; NMeAla(cPent) = CN[C@@H](CC1CCCC1)C(=O)O; NMeNva(5,5-F2) = CN[C@@H](CCC(F)F)C(=O)O; NMeGly(cPent) = CN[C@H](C(=O)O)C1CCCC1; NMeAla(cPr) = CN[C@@H](CC1CC1)C(=O)O; NMehPhe = CN[C@@H](CCc1ccccc1)C(=O)O; NMeCha = CN[C@@H](CC1CCCCC1)C(=O)O; NMeGly(cPr) = CN[C@H](C(=O)O)C1CC1; NMeChg = CN[C@H](C(=O)O)C1CCCCC1; NMeF = CN[C@@H](Cc1ccccc1)C(=O)O; NMeI = CC[C@H](C)[C@H](NC)C(=O)O; NMeD = CN[C@@H](CC(=O)O)C(=O)O; NMeL = CN[C@@H](CC(C)C)C(=O)O; hLeu = CC(C)CC[C@H](N)C(=O)O; NMeV = CN[C@H](C(=O)O)C(C)C; d(β3hA) = C[C@@H](N)CC(=O)O; Ac6c = NC1(C(=O)O)CCCCC1; NMeA = CN[C@@H](C)C(=O)O; Piperidide = C1CCN(*)CC1; Pyrrolidide = C1CCN(*)C1; dNMeA = CN[C@H](C)C(=O)O; Ac5c = NC1(C(=O)O)CCCC1; Aze = O=C(O)[C@@H]1CCN1; Sar = CNCC(=O)O
# Target: T1, Kras and SOS1 (biotin-tagged human Kras loaded with GDP, His-tagged human SOS1) (Homo sapiens, UniProt P01116, G12D)
# T1 construct: made in house; host or cells: E. coli (stated for Kras only)
# T1 sequence (P01116 1-188 isoform P01116-2 G12D): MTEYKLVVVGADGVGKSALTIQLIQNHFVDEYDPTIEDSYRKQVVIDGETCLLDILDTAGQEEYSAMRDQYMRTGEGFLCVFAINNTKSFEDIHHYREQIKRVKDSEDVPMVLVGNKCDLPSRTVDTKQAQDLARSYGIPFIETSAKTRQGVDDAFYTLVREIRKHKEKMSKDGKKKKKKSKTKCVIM
# Experiment: Protein-protein interaction inhibition between Kras and SOS1 (KrasGl2D-SOS PPI) using AlphaScreen
# Type: binding
# Conditions: AlphaScreen; biotin-tagged human Kras loaded with GDP, His-tagged human SOS1; read-out: KRAS G12D-SOS PPI IC50
# In short: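 AlphaScreen format: Ni donor beads capture His-SOS1, streptavidin acceptor beads capture biotinylated Kras (E. coli-expressed, GDP-loaded post-purification). Excite 680 nm, read 520-620 nm.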
row,SMILES,IC50 [nM]
1,CC[C@H](C)[C@@H]1NC(=O)[C@H](CC(C)C)N(C)C(=O)C[C@@H](C)NC(=O)[C@H](C(C)C)N(C)C(=O)C2(CCCC2)NC(=O)[C@@H]2CCCN2C(=O)[C@H](CCc2ccc(C(F)(F)F)c(Cl)c2)NC(=O)CN(C)C(=O)[C@H](Cc2ccccc2)N(C)C(=O)CN(C)C(=O)CN(C)C1=O [Compound 1606] (cyclo([Ac5c][NMeV][d(β3hA)][NMeL]I[Sar][Sar][NMeF][Sar][hPhe(3-Cl-4-CF3)]P)),15
2,CC[C@H](C)[C@@H]1NC(=O)[C@H](CC(C)C)N(C)C(=O)C[C@@H](C)NC(=O)[C@H](C(C)C)N(C)C(=O)C2(CCCC2)NC(=O)[C@@H]2CCCN2C(=O)[C@H](CCc2ccc(C(F)(F)F)c(Cl)c2)NC(=O)CN(C)C(=O)[C@H](CC2CCCCC2)N(C)C(=O)[C@@H]2CCN2C(=O)[C@H](CC2CC2)N(C)C1=O [Compound 1612] (cyclo([Ac5c][NMeV][d(β3hA)][NMeL]I[NMeAla(cPr)][Aze][NMeCha][Sar][hPhe(3-Cl-4-CF3)]P)),390
3,CC[C@H](C)[C@@H]1NC(=O)[C@H](CC(C)C)N(C)C(=O)C[C@@H](C)NC(=O)[C@H](C(C)C)N(C)C(=O)C2(CCCC2)NC(=O)[C@@H]2CCCN2C(=O)[C@H](CCc2ccc(C(F)(F)F)c(Cl)c2)NC(=O)CN(C)C(=O)[C@H](Cc2ccccc2C(F)(F)F)N(C)C(=O)CN(C)C(=O)CN(C)C1=O [Compound 1613] (cyclo([Ac5c][NMeV][d(β3hA)][NMeL]I[Sar][Sar][NMePhe(2-CF3)][Sar][hPhe(3-Cl-4-CF3)]P)),110
4,CC[C@H](C)[C@@H]1NC(=O)[C@H](CC(C)C)N(C)C(=O)C[C@@H](C)NC(=O)[C@H](C(C)C)N(C)C(=O)C2(CCCC2)NC(=O)[C@@H]2CCCN2C(=O)[C@H](CCc2ccc(C(F)(F)F)c(Cl)c2)NC(=O)CN(C)C(=O)[C@H](Cc2ccccc2C)N(C)C(=O)CN(C)C(=O)CN(C)C1=O [Compound 1614] (cyclo([Ac5c][NMeV][d(β3hA)][NMeL]I[Sar][Sar][NMePhe(2-Me)][Sar][hPhe(3-Cl-4-CF3)]P)),51
5,CC[C@H](C)[C@@H]1NC(=O)[C@H](CC(C)C)N(C)C(=O)C[C@@H](C)NC(=O)[C@H](C(C)C)N(C)C(=O)C2(CCCC2)NC(=O)[C@@H]2CCCN2C(=O)[C@H](CCc2ccc(C(F)(F)F)c(Cl)c2)NC(=O)CN(C)C(=O)[C@H](CC2CCCCC2)N(C)C(=O)[C@@H]2CCN2C(=O)[C@H](CC2CCCC2)N(C)C1=O [Compound 1618] (cyclo([Ac5c][NMeV][d(β3hA)][NMeL]I[NMeAla(cPent)][Aze][NMeCha][Sar][hPhe(3-Cl-4-CF3)]P)),290
6,CC[C@H](C)[C@@H]1NC(=O)[C@H](C)N(C)C(=O)C[C@@H](C(=O)N2CCCCC2)N(C)C(=O)[C@H](C(C)C)N(C)C(=O)C2(CCCC2)NC(=O)[C@@H]2CCCN2C(=O)[C@H](CCc2ccc(C(F)(F)F)c(Cl)c2)NC(=O)CN(C)C(=O)[C@H](CC2CCCCC2)N(C)C(=O)[C@@H]2CCN2C(=O)[C@H](C2CCCCC2)N(C)C1=O [Compound 1622] ([NMeA]I[NMeChg][Aze][NMeCha][Sar][hPhe(3-Cl-4-CF3)]P[Ac5c][NMeV][NMeD]-Piperidide; lactam N-11),130
7,CC[C@H](C)[C@@H]1NC(=O)[C@H](CC(C)C)N(C)C(=O)C[C@@H](C)NC(=O)[C@H](C(C)C)N(C)C(=O)C2(CCCC2)NC(=O)[C@@H]2CCCN2C(=O)[C@H](CCc2ccc(C(F)(F)F)c(Cl)c2)NC(=O)CN(C)C(=O)[C@H](Cc2cccc(Cl)c2)N(C)C(=O)CN(C)C(=O)CN(C)C1=O [Compound 1623] (cyclo([Ac5c][NMeV][d(β3hA)][NMeL]I[Sar][Sar][NMePhe(3-Cl)][Sar][hPhe(3-Cl-4-CF3)]P)),54
8,CC[C@H](C)[C@@H]1NC(=O)[C@H](CC(C)C)N(C)C(=O)C[C@@H](C(=O)N2CCCCC2)N(C)C(=O)[C@H](C(C)C)N(C)C(=O)C2(CCCC2)NC(=O)[C@@H]2CCCN2C(=O)[C@H](CCc2ccc(C(F)(F)F)c(Cl)c2)NC(=O)CN(C)C(=O)[C@H](CC2CCCCC2)N(C)C(=O)[C@@H]2CCN2C(=O)[C@H](CCc2ccccc2)N(C)C1=O [Compound 1624] ([NMeL]I[NMehPhe][Aze][NMeCha][Sar][hPhe(3-Cl-4-CF3)]P[Ac5c][NMeV][NMeD]-Piperidide; lactam N-11),92
9,CC[C@H](C)[C@@H]1NC(=O)[C@H](CC(C)C)N(C)C(=O)C[C@@H](C)NC(=O)[C@H](C(C)C)N(C)C(=O)C2(CCCC2)NC(=O)[C@@H]2CCCN2C(=O)[C@H](CCc2ccc(C(F)(F)F)c(Cl)c2)NC(=O)CN(C)C(=O)[C@H](CCc2ccccc2)N(C)C(=O)CN(C)C(=O)CN(C)C1=O [Compound 1627] (cyclo([Ac5c][NMeV][d(β3hA)][NMeL]I[Sar][Sar][NMehPhe][Sar][hPhe(3-Cl-4-CF3)]P)),15
10,CC[C@H](C)[C@@H]1NC(=O)[C@H](CC(C)C)N(C)C(=O)C[C@@H](C)NC(=O)[C@H](C(C)C)N(C)C(=O)C2(CCCC2)NC(=O)[C@@H]2CCCN2C(=O)[C@H](CCc2ccc(C(F)(F)F)c(Cl)c2)NC(=O)CN(C)C(=O)[C@H](Cc2ccccc2OC(F)(F)F)N(C)C(=O)CN(C)C(=O)CN(C)C1=O [Compound 1635] (cyclo([Ac5c][NMeV][d(β3hA)][NMeL]I[Sar][Sar][X23][Sar][hPhe(3-Cl-4-CF3)]P)),140
11,CC[C@H](C)[C@@H]1NC(=O)[C@H](CC(C)C)N(C)C(=O)C[C@@H](C(=O)N2CCCCC2)N(C)C(=O)[C@H](C(C)C)N(C)C(=O)C2(CCCC2)NC(=O)[C@@H]2CCCN2C(=O)[C@H](CCc2ccc(C(F)(F)F)c(Cl)c2)NC(=O)CN(C)C(=O)[C@H](CC2CCCCC2)N(C)C(=O)[C@@H]2CCN2C(=O)[C@H](CC2CC2)N(C)C1=O [Compound 1642] ([NMeL]I[NMeAla(cPr)][Aze][NMeCha][Sar][hPhe(3-Cl-4-CF3)]P[Ac5c][NMeV][NMeD]-Piperidide; lactam N-11),58
12,CC[C@H](C)[C@@H]1NC(=O)[C@H](CC(C)C)N(C)C(=O)C[C@@H](C(=O)N2CCCCC2)N(C)C(=O)[C@H](C2CCCCC2)N(C)C(=O)C2(CCCCC2)NC(=O)[C@@H]2CCCN2C(=O)[C@H](CCc2ccc(C(F)(F)F)c(Cl)c2)NC(=O)CN(C)C(=O)[C@H](CC2CCCCC2)N(C)C(=O)CN(C)C(=O)CN(C)C1=O [Compound 1644] ([NMeL]I[Sar][Sar][NMeCha][Sar][hPhe(3-Cl-4-CF3)]P[Ac6c][NMeChg][NMeD]-Piperidide; lactam N-11),3.1
13,"CC[C@H](C)[C@@H]1NC(=O)[C@H](CC(C)C)N(C)C(=O)C[C@@H](C(=O)N2CCCCC2)N(C)C(=O)[C@H](C2CCCCC2)N(C)C(=O)C2(CCCC2)NC(=O)[C@@H]2CCCN2C(=O)[C@H](CCc2ccc(C(F)(F)F)c(Cl)c2)NC(=O)CN(C)C(=O)[C@H](CCC(F)F)N(C)C(=O)CN(C)C(=O)CN(C)C1=O [Compound 1647] ([NMeL]I[Sar][Sar][NMeNva(5,5-F2)][Sar][hPhe(3-Cl-4-CF3)]P[Ac5c][NMeChg][NMeD]-Piperidide; lactam N-11)",3
14,CC[C@H](C)[C@@H]1NC(=O)[C@H](CC(C)C)N(C)C(=O)C[C@@H](C(=O)N2CCCCC2)N(C)C(=O)[C@H]([C@@H](C)CC)N(C)C(=O)C2(CCCC2)NC(=O)[C@@H]2CCCN2C(=O)[C@H](CCc2ccc(C(F)(F)F)c(Cl)c2)NC(=O)CN(C)C(=O)[C@H](Cc2ccc(C)cc2)N(C)C(=O)CN(C)C(=O)CN(C)C1=O [Compound 1649] ([NMeL]I[Sar][Sar][NMePhe(4-Me)][Sar][hPhe(3-Cl-4-CF3)]P[Ac5c][NMeI][NMeD]-Piperidide; lactam N-11),0.42
15,CC(C)CC[C@@H]1NC(=O)[C@H](CC(C)C)N(C)C(=O)C[C@@H](C(=O)N2CCCCC2)N(C)C(=O)[C@H](C2CCCCC2)N(C)C(=O)C2(CCCC2)NC(=O)[C@@H]2CCCN2C(=O)[C@H](CCc2ccc(C(F)(F)F)c(Cl)c2)NC(=O)CN(C)C(=O)[C@H](CC2CCCCC2)N(C)C(=O)CN(C)C(=O)CN(C)C1=O [Compound 1651] ([NMeL][hLeu][Sar][Sar][NMeCha][Sar][hPhe(3-Cl-4-CF3)]P[Ac5c][NMeChg][NMeD]-Piperidide; lactam N-11),4.9
16,CC[C@H](C)[C@@H]1NC(=O)[C@H](C)N(C)C(=O)C[C@@H](C)NC(=O)[C@H](C(C)C)N(C)C(=O)C2(CCCC2)NC(=O)[C@@H]2CCCN2C(=O)[C@H](CCc2ccc(C(F)(F)F)c(Cl)c2)NC(=O)[C@@H](C)N(C)C(=O)[C@H](Cc2ccc(F)cc2)N(C)C(=O)CN(C)C(=O)CN(C)C1=O [Compound 1655] (cyclo([Ac5c][NMeV][d(β3hA)][NMeA]I[Sar][Sar][NMePhe(4-F)][dNMeA][hPhe(3-Cl-4-CF3)]P)),85
17,CC[C@H](C)[C@@H]1NC(=O)[C@H](CC(C)C)N(C)C(=O)C[C@@H](C(=O)N(C)C)N(C)C(=O)[C@H](C2CCCC2)N(C)C(=O)C2(CCCC2)NC(=O)[C@@H]2CCCN2C(=O)[C@H](CCc2ccc(C(F)(F)F)c(Cl)c2)NC(=O)CN(C)C(=O)[C@H](CC2CCCCC2)N(C)C(=O)CN(C)C(=O)CN(C)C1=O [Compound 1659] ([NMeL]I[Sar][Sar][NMeCha][Sar][hPhe(3-Cl-4-CF3)]P[Ac5c][NMeGly(cPent)][NMeD]-NMe2; lactam N-11),0.38
18,CC[C@H](C)[C@@H]1NC(=O)[C@H](CC(C)C)N(C)C(=O)C[C@@H](C(=O)N2CCCC2)N(C)C(=O)[C@H]([C@@H](C)CC)N(C)C(=O)C2(CCCC2)NC(=O)[C@@H]2CCCN2C(=O)[C@H](CCc2ccc(C(F)(F)F)c(Cl)c2)NC(=O)CN(C)C(=O)[C@H](CC2CCCCC2)N(C)C(=O)CN(C)C(=O)CN(C)C1=O [Compound 1662] ([NMeL]I[Sar][Sar][NMeCha][Sar][hPhe(3-Cl-4-CF3)]P[Ac5c][NMeI][NMeD]-Pyrrolidide; lactam N-11),0.65
19,CC[C@H](C)[C@@H]1NC(=O)[C@H](CC(C)C)N(C)C(=O)C[C@@H](C(=O)N2CCCCC2)N(C)C(=O)[C@H](C2CCCCC2)N(C)C(=O)C2(CCCC2)NC(=O)[C@@H]2CCCN2C(=O)[C@H](CCc2ccc(C(F)(F)F)c(Cl)c2)NC(=O)CN(C)C(=O)[C@H](C2CC2)N(C)C(=O)CN(C)C(=O)CN(C)C1=O [Compound 1666] ([NMeL]I[Sar][Sar][NMeGly(cPr)][Sar][hPhe(3-Cl-4-CF3)]P[Ac5c][NMeChg][NMeD]-Piperidide; lactam N-11),1.1
